From patent US10195144B2, “Methods of treating inflammatory and autoimmune diseases and disorders” (Yale University, priority 2012, dated 2019)

How the values were obtained:
[1] = tested on: CD4 T cells; assay: CD4 T cell proliferation after particle incubation, wash and anti-CD3/anti-CD28 stimulation; format: cell-based; conditions: brief incubation, wash, 4 days stimulation
Procedure: CD4 T cells were briefly incubated with particles, washed to remove any unbound particles, and then stimulated for 4 days with anti-CD3 and anti-CD28 antibodies to promote proliferation.

[2] = tested on: NZB/W F1 lupus-prone mice; assay: in vivo comparison of nanolipogels and PLGA particles, survival; conditions: 0.625 mg MPA per kg
From the text: The efficacy of nanolipogels was compared to PLGA using both in vivo and in vitro evaluation. […] Survival time was monitored to determine and compare in vivo efficacy between particles.

[3] = tested on: female NZB/W F1 mice; assay: survival of lupus-prone mice under life-long weekly therapy; format: in vivo
Procedure: NZB/W F1 mice develop autoimmunity that resembles human lupus nephritis, with development of glomerulonephritis, anemia, and the generation of autoantibodies specific for double-stranded DNA and other self-antigens. NZB/W F1 mice were administered a life-long, single weekly intraperitoneal injection of nanoparticle therapy beginning at 18 weeks of age, before the onset of proteinuria. The single, weekly MPA dosage in nanoparticles was 0.625 mg of MP A per kg animal (mpk). Control mice received only saline buffer.
Animal studies using female NZB/W F1 mice (The Jackson Laboratory, stock #100008) were performed with the approval of the Yale University Institutional Animal Care and Use Committee. Beginning at 18 weeks of age, NZB/W F1 mice were administered a weekly intraperitoneal injection of nanoparticles or mycophenolic acid in buffer for the entirety of their life. An intraperitoneal injection was used, as opposed to intravenous tail vein injection, to prevent long-term tail vein damage from chronic injections. Mice urine was collected by bladder compression, and blood was collected via retroorbital bleed with isoflurane anesthesia. Mouse survival was continued until symptoms of cachexia (more than 5-10% body weight loss), lethargy, or poor condition warranted humane euthanization.

SMILES: COc1c(C)c2c(c(O)c1C/C=C(\C)CCC(=O)O)C(=O)OC2 [MPA, mycophenolic acid]
- CD4 T cell proliferation and cytokine production [1]: normal proliferation and cytokine production
- increase of survival time of treated mice [2]: not
- effect on survival ([3]; 0.625 mpk soluble in buffer): no effect on extending survival
- effect on survival ([3]; 10 mpk (16-fold) in buffer, listed as MPA administered in buffer): could not achieve the same therapeutic effect
- effect on survival ([3]; 10 mpk (16-fold) in buffer, listed as free MPA): no improvement in survival
